The results in this text go back to patent US20230114728A1 (Venatorx Pharmaceuticals, Inc., priority 2019, published 2023).

One assay deals with T1, N. gonorrhoeae PBP2 (Neisseria gonorrhoeae, UniProt P08149).
T1 construct: made in house
The assay is described as follows: Bocillin-FL fluorescence polarization competition binding assay, N. gonorrhoeae PBP2. Conditions: fluorescence polarization competition binding assay using Bocillin-FL; read-out: N. gonorrhoeae PBP2 Potency. In outline:
(§1)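 A. baumannii PBP2 (2.5 μM) and PBP3 (0.2 μM) were run in 25 mM Tris pH 8.0 buffer with Tween 20; E. coli PBP3 (1.5 μM) and N. gonorrhoeae PBP2 ([…]) in 50 mM Hepes pH 8.0 buffer.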
A general note: In fluorescence polarisation assays a small probe gives low polarisation when free and higher when bound to something large.

In another assay the test system is P. aeruginosa CDC-0110. The assay is described as follows: Broth microdilution MIC in iron-depleted CAMHB (IDM). The format is cell-based. The settings on record: Pseudomonas aeruginosa, CDC0110, read-out: Minimum Inhibitory Concentration, P. aeruginosa CDC-0110. Put shortly:
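MIC is the lowest well showing no visible growth after 16-20 h at 37 °C, starting from 2-8×10^5 CFU/mL in 2-fold serial compound dilutions. Medium: cation-adjusted Mueller Hinton broth iron-depleted with Chelex 100, supplemented back with Ca, Mg and Zn, pH 7.3; CLSI protocol.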

In the next assay the target is A. baumannii PBP1a (Acinetobacter baumannii, UniProt A0ABX6CK30). Put plainly: Bocillin-FL fluorescence polarization competition binding assay, A. baumannii PBP1a. Conditions: fluorescence polarization competition binding assay using Bocillin-FL; column 1; read-out: A. baumannii PBP1a Potency.
The nature of assay [1]: Bocillin-FL fluorescence polarization competition binding assay, A. baumannii PBP3. Conditions: fluorescence polarization competition binding assay using Bocillin-FL; column 3; read-out: 4. baumannii PBP1a Potency. In outline:
as §1

The test system of assay [2] is A. baumannii IL123 (ABΔ3-ARAEcPore). Put plainly: Broth microdilution MIC in iron-depleted CAMHB (IDM). The format is cell-based. Conditions: Acinetobacter baumannii, read-out: Minimum Inhibitory Concentration, IL-2123. Put shortly: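 CLSI broth microdilution in iron-depleted CAMHB (Chelex 100-treated, Ca, Mg and 10 μM Zn re-added, pH 7.3). Inoculum was 2-8×10^5 CFU/mL from 3-5 h IDM cultures. Plates were incubated at 37° C for 20-24 h (Acinetobacter) or 16-20 h (Pseudomonas), and MIC was read visually as the lowest concentration without growth.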
Background: Dilution methods test growth across graded concentrations, often in twofold steps.

Converted amounts (≈) assume the structure as drawn.

Sequence of A. baumannii PBP1a (A0ABX6CK30 entry or part of it): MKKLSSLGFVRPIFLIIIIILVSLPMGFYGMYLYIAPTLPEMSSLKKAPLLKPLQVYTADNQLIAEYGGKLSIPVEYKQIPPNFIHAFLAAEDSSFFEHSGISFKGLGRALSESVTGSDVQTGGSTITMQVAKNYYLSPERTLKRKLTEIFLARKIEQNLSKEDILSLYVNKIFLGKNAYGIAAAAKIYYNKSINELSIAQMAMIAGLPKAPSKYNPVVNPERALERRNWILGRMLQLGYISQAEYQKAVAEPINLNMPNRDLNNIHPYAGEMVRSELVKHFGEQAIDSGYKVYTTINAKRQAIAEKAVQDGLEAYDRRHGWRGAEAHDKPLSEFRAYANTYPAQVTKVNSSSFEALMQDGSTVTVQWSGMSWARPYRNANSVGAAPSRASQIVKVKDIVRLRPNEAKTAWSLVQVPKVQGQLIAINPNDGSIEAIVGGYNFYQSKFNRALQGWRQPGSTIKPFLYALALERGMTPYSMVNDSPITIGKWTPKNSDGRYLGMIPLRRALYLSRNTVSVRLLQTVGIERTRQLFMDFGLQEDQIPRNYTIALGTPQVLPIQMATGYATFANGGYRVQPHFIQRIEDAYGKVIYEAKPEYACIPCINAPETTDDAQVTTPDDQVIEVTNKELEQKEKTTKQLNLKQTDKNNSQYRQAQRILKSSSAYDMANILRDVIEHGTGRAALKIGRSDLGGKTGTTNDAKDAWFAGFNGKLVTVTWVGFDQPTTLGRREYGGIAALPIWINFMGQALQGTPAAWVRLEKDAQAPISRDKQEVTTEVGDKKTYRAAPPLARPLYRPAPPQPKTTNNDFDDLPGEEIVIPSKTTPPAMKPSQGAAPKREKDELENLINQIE
T1 sequence (P08149 whole entry): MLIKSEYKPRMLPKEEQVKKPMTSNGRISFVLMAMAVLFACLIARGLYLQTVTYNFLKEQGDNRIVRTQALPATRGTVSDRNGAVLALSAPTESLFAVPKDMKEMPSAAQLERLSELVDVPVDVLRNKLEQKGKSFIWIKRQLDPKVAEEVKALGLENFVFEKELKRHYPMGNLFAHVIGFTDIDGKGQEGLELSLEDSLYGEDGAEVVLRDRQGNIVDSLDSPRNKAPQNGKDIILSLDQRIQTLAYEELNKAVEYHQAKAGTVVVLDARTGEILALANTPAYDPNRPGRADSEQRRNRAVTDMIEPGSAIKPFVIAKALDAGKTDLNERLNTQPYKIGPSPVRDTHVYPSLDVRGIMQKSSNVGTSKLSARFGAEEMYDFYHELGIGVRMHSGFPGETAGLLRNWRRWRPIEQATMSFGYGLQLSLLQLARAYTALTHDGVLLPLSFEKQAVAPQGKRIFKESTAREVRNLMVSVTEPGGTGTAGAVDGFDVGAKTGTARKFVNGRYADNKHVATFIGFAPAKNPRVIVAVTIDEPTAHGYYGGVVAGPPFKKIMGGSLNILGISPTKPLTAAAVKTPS

Turning to `CS(=O)(=O)N1CCN(C(=O)N[C@@H](C(=O)N[C@H]2Cc3ccc(F)c(C(=O)O)c3OB2O)c2cc(F)c(O)c(O)c2Cl)C1=O` (single isomer, unassigned) [Example 189], the EC50 at N. gonorrhoeae PBP2 is 10 to 30 µM; on A. baumannii PBP1a, > 100 µM; in assay [1] it was 10 to 30 µM. In addition, the MIC in the assay on P. aeruginosa CDC-0110 was in the range of 0.5 to 1 µg/mL (≈ 0.79 to 1.58 µM).
As for `O=C(NCCCN1CCN(C(=O)NC(C(=O)N[C@H]2Cc3cccc(C(=O)O)c3OB2O)c2ncc(O)cc2F)C(=O)C1=O)c1ccc(O)c(O)c1Cl` (stereo partly drawn) [Example 1, (3R)-3-(2-(4-(3-(2-chloro-3,4-dihydroxybenzamido)propyl)-2,3-dioxopiperazine-1-carboxamido)-2-(3-fluoro-5-hydroxypyridin-2-yl)acetamido)-2-hydroxy-3,4-dihydro-2H-benzo[e][1,2]oxaborinine-8-carboxylic acid], in assay [2], the MIC fell in the range of 0.5 to 1 µg/mL (≈ 0.673 to 1.35 µM). Also, the EC50 at A. baumannii PBP1a fell in the range of 10 to 30 µM.
For `Nc1nc(C(NC(=O)N2CCN(CCNC(=O)c3ccc(O)c(O)c3Cl)C(=O)C2=O)C(=O)N[C@H]2Cc3ccc(F)c(C(=O)O)c3OB2O)c(F)s1` (stereo partly drawn) [Example 4, (3R)-3-(2-(2-amino-5-fluorothiazol-4-yl)-2-(4-(2-(2-chloro-3,4-dihydroxybenzamido)ethyl)-2,3-dioxopiperazine-1-carboxamido)acetamido)-7-fluoro-2-hydroxy-3,4-dihydro-2H-benzo[e][1,2]oxaborinine-8-carboxylic acid], the MIC in the assay with P. aeruginosa CDC-0110 was 0.25 µg/mL (≈ 0.333 µM); in assay [2], 32 to 64 µg/mL (≈ 42.6 to 85.1 µM).
For `O=C(NCCN1CCN(C(=O)NC(C(=O)N[C@H]2Cc3ccc(F)c(C(=O)O)c3OB2O)c2ncc(O)cc2F)C(=O)C1=O)c1c(F)cc(O)c(O)c1Cl` (stereo partly drawn) [Example 5, (3R)-3-(2-(4-(2-(2-chloro-6-fluoro-3,4-dihydroxybenzamido)ethyl)-2,3-dioxopiperazine-1-carboxamido)-2-(3-fluoro-5-hydroxypyridin-2-yl)acetamido)-7-fluoro-2-hydroxy-3,4-dihydro-2H-benzo[e][1,2]oxaborinine-8-carboxylic acid], the figures for the MIC (with P. aeruginosa CDC-0110; in assay [2]) were 0.25 µg/mL (≈ 0.327 µM) and 2 to 4 µg/mL (≈ 2.61 to 5.23 µM), respectively. The EC50 at A. baumannii PBP1a was 10 to 30 µM; in assay [1], < 10 µM.
As to `Nc1nc(/C(=N/OC[C@H](NC(=O)c2ccc(O)c(O)c2Cl)C(=O)O)C(=O)N[C@H]2Cc3cccc(C(=O)O)c3OB2O)cs1` [Example 6, (R)-3-((Z)-2-(2-aminothiazol-4-yl)-2-(((S)-2-carboxy-2-(2-chloro-3,4-dihydroxybenzamido)ethoxy)imino)acetamido)-2-hydroxy-3,4-dihydro-2H-benzo[e][1,2]oxaborinine-8-carboxylic acid], the MIC in the assay with P. aeruginosa CDC-0110 was in the range of 2 to 4 µg/mL (≈ 3.16 to 6.31 µM); in assay [2] it was 32 to 64 µg/mL (≈ 50.5 to 101 µM). Besides, the EC50 in assay [1] was > 100 µM.
`NCCCN1CCN(C(=O)N[C@@H](C(=O)N[C@H]2Cc3cc(Cl)c(F)c(C(=O)O)c3OB2O)c2c(F)cc(O)c(O)c2Cl)C(=O)C1=O` [Example 190, (R)-3-((R)-2-(4-(3-aminopropyl)-2,3-dioxopiperazine-1-carboxamido)-2-(2-chloro-6-fluoro-3,4-dihydroxyphenyl)acetamido)-6-chloro-7-fluoro-2-hydroxy-3,4-dihydro-2H-benzo[e][1,2]oxaborinine-8-carboxylic acid]: the EC50 (at N. gonorrhoeae PBP2; on A. baumannii PBP1a; in assay [1]) was > 100 µM throughout. Also, the MIC in the assay on P. aeruginosa CDC-0110 fell in the range of 2 to 4 µg/mL (≈ 2.97 to 5.93 µM).
As to `CCN1CCN(C(=O)N[C@@H](C(=O)N[C@H]2Cc3cc(Cl)c(F)c(C(=O)O)c3OB2O)c2c(F)cc(O)c(O)c2Cl)C(=O)C1=O` [Example 191, (R)-6-chloro-3-((R)-2-(2-chloro-6-fluoro-3,4-dihydroxyphenyl)-2-(4-ethyl-2,3-dioxopiperazine-1-carboxamido)acetamido)-7-fluoro-2-hydroxy-3,4-dihydro-2H-benzo[e][1,2]oxaborinine-8-carboxylic acid], the EC50 was 30 to 100 µM at N. gonorrhoeae PBP2, > 100 µM at A. baumannii PBP1a and 30 to 100 µM in assay [1]. For the same compound, the MIC in the assay with P. aeruginosa CDC-0110 was 2 to 4 µg/mL (≈ 3.1 to 6.2 µM).
